Experimental data published in patent US10004718B2, “Erythropoietin expression promoter” (TOHOKU UNIVERSITY, priority 2012, dated 2018).

Legend:
erythropoietin = assay: Erythropoietin production in vivo in mice, oral administration for 7 days; design: species or system mouse; settings: 7 consecutive days, plasma 24 hours after final administration, vs corn oil, DMSO+corn oil or no administration
Procedure: A mixed solution (200 μl) of each of 4 types of compounds (compounds #4, 5, 21, and 35) (10 mg/100 μl of DMSO) (10 μl) and corn oil (190 μl) was prepared. This mixed solution (200 μl) was orally administered to each mouse (C57BL/6N 8 W, male, 21-25 g) between 15:00 to 18:00 every day using a sonde. This administration was carried out for 7 consecutive days. Mice orally given corn oil or DMSO and corn oil as well as non-administered mice were used as controls.
24 hours after the final administration, each mouse was cervically dislocated, and 500 μl of blood was collected from the heart. Then, an anticoagulant (10 μl of heparin) was added thereto, and the resulting blood was centrifuged (12000 rpm×20 min, 4° C.) to isolate plasma. The plasma concentration […] of erythropoietin was measured using a kit (Quantikine Mouse/Rat Epo Immunoassay, manufactured by R&D Systems, Inc.).

[1] = test system: mouse erythropoietin gene promoter; assay: Luciferase reporter assay of erythropoietin gene promoter in Hep3B cells; format: cell-based; settings: for effect on erythropoietin gene promoter transcriptional activity compared with HIF activator FG-4592: compound 10 μM vs FG-4592 10 μM, 20% O2; for transcription level of the erythropoietin gene promoter: compound 10 μM, 20% O2, 48 hours, vs 20% O2/DMSO
Procedure: A plasmid vector HE-mPro-luc for luciferase assay on the promoter activity of the 5′ upstream transcriptional regulatory region of the mouse erythropoietin gene was prepared by cleaving, with restriction enzymes XbaI and SacI, a region having a length from −571 to +53 bp starting at the translation initiation site of exon 1 of the mouse erythropoietin gene, and inserting this region to a luciferase reporter vector pXP2 (Nordeen S K. BioTechniques. 6: […], 1988).
The Hep3B cells were adjusted to 10×10^4 cells/well in a 24-well cell culture plate and subcultured. Under microscopy, the Hep3B cells that reached a cell density of 70 to 80% were transfected with the plasmid DNA for luciferase reporter assay. The composition of a solution for transfection was prepared by mixing 2 μg of HE-mPro-luc, 50 ng of pRh-TK (manufactured by Promega K.K.), and 2 μl of Lipofectamine 2000 (manufactured by Invitrogen Corp.) with 100 μl of OptiMEM-I (manufactured by Life Technologies, Inc./GIBCO) per well, followed by incubation at room temperature for 20 minutes. The solution was added to the Hep3B cells in the 24-well cell culture plate preincubated in 0.5 ml of serum-free OptiMEM-I medium, and then incubated for 4 hours without serum and antibiotics under conditions of 37° C. and 5% CO2/20% O2. Then, the medium was replaced with RPMI1640 common medium 1 supplemented with each of 5 types of compounds (compounds #2, 4, 5, 18, and 21) at a concentration of 10 μM, followed by further incubation for 48 hours under conditions of 37° C. and 5% CO2/20% O2. Then, the medium was replaced with 0.5 ml of serum-free PBS, and the cells were gently washed, followed by the removal of PBS by suction. This operation was carried out twice. Then, 100 μl of passive lysis buffer (manufactured by Promega K.K.) was added thereto, and the cells were lysed by mixing at room temperature for 20 minutes. Hep3B cells cultured in the absence of the compound (DMSO added [1%]) (“20% O2/DMSO” of FIG. 3) were used as a negative control. Hep3B cells cultured in the presence of an HIF activator (FG-4592 [10 μM]) (“20% O2/FG4592” of FIG. 3) and Hep3B cells cultured under hypoxia (1% O2) conditions and in the absence of the compound (DMSO added [1%]) (“1% O2/DMSO” of FIG. 3) were used as positive controls.
Dual Luciferase Reporter Assay System (manufactured by Promega K.K.) was used in the luciferase reporter assay. The amounts of firefly and Renilla luciferases were measured using a luminometer Lumat LB9507 (manufactured by BERTHOLD TECHNOLOGIES GmbH & Co. KG). The amount of Fire fly luciferase was divided by the amount of Renilla luciferase to calculate the transcriptional activity of the erythropoietin gene.

Structure (SMILES)	amount of erythropoietin in the mouse blood (erythropoietin)	effect on erythropoietin gene promoter transcriptional activity compared with HIF activator FG-4592 [1]	transcription level of the erythropoietin gene promoter [1]
O=C(CC(C(=O)O)c1c[nH]c2ccccc12)c1ccc(F)cc1F (stereo not drawn) [compound #5, 4-(2,4-Difluorophenyl)-2-(1H-indol-3-yl)-4-oxo-butanoic acid]	increased	superior to the effect of the existing HIF activator (FG-4592)	increase the transcription level
O=C(CC(C(=O)O)c1c[nH]c2ccccc12)c1ccc(F)cc1 (stereo not drawn) [compound #4, 4-(4-Fluorophenyl)-2-(1H-indol-3-yl)-4-oxo-butanoic acid]	increased	superior to the effect of the existing HIF activator (FG-4592)	increase the transcription level
O=C(O)C(CCCC(F)(F)C(F)(F)F)c1c[nH]c2ccccc12 (stereo not drawn) [compound #21, α-(4,4,5,5,5-Pentafluoro-1-pentyl)-3-indoleacetic acid]	increased	superior to the effect of the existing HIF activator (FG-4592)	increase the transcription level
